Results published in article PMC9404711 (Antibiotics, 2022).
Where two headings read alike, the source gives them in different places. Non-standard residues stand in square brackets, D forms with d. Residues, ends and D or L forms follow the SMILES beside them.

What was measured:
E. coli (ATCC 25922) = format: cell-based, Escherichia coli; settings: E. coli ATCC 25922, MHB-II, 37 °C, 18–24 h, triplicate
Description: (§1) The following bacteria were grown in cation-adjusted Muller-Hinton broth at 37 °C with shaking: A. baumannii (ATCC 19606), E. coli (ATCC 25922), K. pneumoniae (ATCC 13883), P. aeruginosa (ATCC 27853), and S. aureus (ATCC 29213).
(§2) The MIC experiments were performed in triplicate, as described in Jensen et al.. Briefly, all peptide stock solutions were prepared by dissolving each peptide in Milli-Q water to obtain a concentration of 10 mg/mL. A bacterial concentration of 10^6 CFU/mL was obtained through the dilution of an overnight culture (MHB-II medium). When the overnight culture was prepared, the OD was measured using a spectrophotometer and when an OD value between 0.2 and 0.4 was obtained, the culture was diluted to OD = 0.002. The MIC determination was carried out in 96-well polypropylene microtitre plates. […] A final bacterial inoculum of 5 × 10^5 CFU/mL per well was obtained by adding 50 μL bacterial suspension to the microtiter plates. The plates were incubated at 37 °C for 18–24 h. To verify the CFU, 10 μL of bacteria suspension was transferred to 990 μL 0.9 % saline solution, from which a 10-fold dilution was carried out. Then, 100 μL of the dilution was plated on an LB plate and left for bacterial growth overnight at 37 °C. Colistin and vancomycin were used as the positive controls.

[1] = system: K. pneumoniae (ATCC 13883); format: cell-based, Klebsiella pneumoniae; settings: K. pneumoniae ATCC 13883, MHB-II, 37 °C, 18–24 h, triplicate
Description: as §1, §2

[2] = system: A. baumannii (ATCC 19606); format: cell-based, Acinetobacter baumannii; settings: A. baumannii ATCC 19606, MHB-II, 37 °C, 18–24 h, triplicate
Description: as §1, §2

[3] = Hydrophobicity by analytical RP-HPLC (%B at elution); format: physicochemical; settings: chromatographic, analytical reversed-phase HPLC, Waters Symmetry C18 5 μm 4.6 × 250 mm; A: H2O + 0.1% TFA, B: 90:10 ACN-H2O + 0.1% TFA
Description: Peptide purity was determined as described previously by analytical RP-HPLC using a Waters 717 plus Autosampler, In-line Degasser AF, 600 Controller, and 2996 Photodiode Array Detector; the column used was a Waters Symmetry C18 column (5 μm, 4.6 mm × 250 mm, Milford, MA, USA). An aqueous acetonitrile (ACN) gradient with 0.1% TFA added (mixing eluent A: H2O + 0.1% TFA and eluent B: 90:10 ACN-H2O + 0.1% TFA) was employed using milli-Q water. Preparative RP-HPLC was performed by using a Waters XSelect Peptide CSH C18 OBDTM column (5 μm, 19 mm × 250 mm, Milford, MA, USA) with the same eluents as for analytical HPLC.
*Hydrophobicity as indicated by the percentage of mobile phase B (%B) at the peak elution time on analytical

S. aureus (ATCC 29213) = assay: MIC determination, broth microdilution; format: cell-based, Staphylococcus aureus; settings: S. aureus ATCC 29213, MHB-II, 37 °C, 18–24 h, triplicate
Description: as §1, §2

[4] = system: colistin-susceptible strain A. baumannii ATCC 19606; settings: at 4 × MIC and above; cited from earlier work
[5] = system: P. aeruginosa (ATCC 27853); format: cell-based, Pseudomonas aeruginosa; settings: P. aeruginosa ATCC 27853, MHB-II, 37 °C, 18–24 h, triplicate
Description: as §1, §2

E. coli = assay: Time-kill assay; format: cell-based, Escherichia coli; settings: start 5 × 10^5 CFU/mL, MHB-II 37 °C, n = 3
Description: The limit of detection was set to 10 CFU/mL, corresponding to a single viable colony after the overnight incubation of 100 μL bacteria suspension on an agar plate.
An overnight culture (MHB-II media) of E. coli was diluted 1:100 in preheated MHB-II, placed in a water bath (37 °C), and allowed to grow until OD600 = 0.2–0.4 was reached. The bacterial suspension was then diluted 1:10 in 25 mL preheated MHB-II, placed in a water bath (37 °C), and then allowed to grow until an OD = 0.2 was reached. […] At time points 0, 1, 3, 5, and 24 h, 250 μL of each sample suspension were transferred to a 0.9 % saline solution in a 1-mL Eppendorf tube. The bacterial cells were washed twice in 0.9% saline, spun down (10,000× g for 5 min) and resuspended in 250 μL 0.9% saline. Then, 10-fold dilution series were prepared and aliquots of 10 μL were spotted onto LB Agar. In addition, 100 μL of undiluted bacterial suspension (except the control sample) was plated out on a separate LB plate. All of the plates were incubated (37 °C) overnight and the results were read after incubation.

human erythrocytes = settings: 150 μM peptide; 0.5% (v/v) red blood cell suspension in PBS, 1 h at 37 °C, absorbance 414 nm; melittin positive control, PBS negative control; three wells
Description: PBS served as the negative control and 5 μM melittin served as the positive control. All melittin solutions were prepared in Protein LoBind Eppendorf tubes to prevent the adsorption of melittin to the inner surface of the tubes.
Preparation of peptide solutions and melittin: A 5 μM melittin solution in PBS was prepared the day before the hemolysis experiment. First, 150 μL of this solution was transferred to each of the positive control wells and stored in the fume hood to coat the wells. On the day of the experiment, the melittin solution was discarded and the wells were washed with 3 × PBS. A 2.5 μM melittin solution in PBS was prepared and 75 μL was transferred to the wells. PBS (150 μL) was used as the negative control. A solution of each peptide was prepared by dissolving the peptide in 0.5 mL PBS to obtain a concentration of 300 μM. Each peptide solution (150 μL) was transferred to the wells in three wells each in row A, and the plate was diluted down.
Preparation of the red blood cell suspension: 1 mL of type O- whole blood in citrate was transferred to a cryotube. The whole blood was washed with 3 × PBS; adding 3, 3, and 4 mL of PBS, respectively. In between, the blood was centrifuged for 8 min (3000, 3000, and 4000 rpm, respectively) and the supernatant was removed after each centrifugation. A 0.5% (v/v) blood suspension was prepared by adding 40 μL of the washed blood cells to 8 mL of PBS. Then, 75 μL of the red blood cell suspension was transferred to each well and mixed gently. The plate was sealed and incubated for 1 h at 37 °C. After incubation, the plate was centrifuged at 4000 rpm for 10 min. Afterwards, 60 μL of the supernatant from each well was quickly transferred to an ELISA plate.
The absorbance was determined at 414 nm, and Equation (1) below was used to calculate the hemolytic activity of the peptides.

Row | SMILES | MIC EC (E. coli (ATCC 25922); inoculum 5 × 10^5 CFU/mL) | MIC EC (E. coli (ATCC 25922); value in brackets) | MIC KP ([1]; inoculum 5 × 10^5 CFU/mL) | MIC KP ([1]; value in brackets) | MIC AB ([2]; inoculum 5 × 10^5 CFU/mL) | MIC AB ([2]; value in brackets) | %B (hydrophobicity: percentage of mobile phase B at the peak elution time) [3] | MIC SA (S. aureus (ATCC 29213); inoculum 5 × 10^5 CFU/mL) | MIC SA (S. aureus (ATCC 29213); value in brackets) | number of CFU in time-kill [4] | MIC PA ([5]; inoculum 5 × 10^5 CFU/mL) | MIC PA ([5]; value in brackets) | viable cells after 24 h (E. coli; 3 × MIC (12 μg/mL)) | viable cells after 24 h (E. coli; 5 × MIC (20 μg/mL)) | % hemolysis of human erythrocytes (human erythrocytes)
1 | CC[C@@H](C)[C@@H](NC(=O)[C@@H](CCCCN)NC(=O)[C@@H](CCCCN)NC(=O)[C@@H](Cc1ccccc1)NC(=O)[C@@H](CC(C)C)NC(=O)[C@@H](CCCCN)NC(=O)[C@H](N)CCCCN)C(=O)N[C@H](CC(C)C)C(=O)N[C@H](CCCNC(=N)N)C(=O)N[C@H](Cc1ccc(O)cc1)C(=O)N[C@H](CC(C)C)C(N)=O [BP214, reference compound] (H-[dK][dK][dL][dF][dK][dK][dI][dL][dR][dY][dL]-NH2; N-terminus assumed) | 4 µg/mL | 2.8 µM | 2 µg/mL | 1.4 µM | 2 µg/mL | 1.4 µM | 50.8 %B | 8 µg/mL | 5.5 µM | below the detection level | 4 µg/mL | 2.8 µM | – | – | –
2 | CCCCCCCCCC(=O)N[C@H](CCCCN)C(=O)N[C@H](CCCCN)C(=O)N[C@H](CC(C)C)C(=O)N[C@H](Cc1ccccc1)C(=O)N[C@H](CCCCN)C(=O)N[C@H](CCCCN)C(=O)N[C@@H](C(=O)N1CCCC[C@H](C(N)=O)NC(=O)[C@@H](Cc2ccc(O)cc2)NC(=O)[C@@H](CCCNC(=N)N)NC(=O)[C@@H](CC(C)C)NC(=O)C1)[C@H](C)CC [compound 13] | 4 µg/mL | 2.4 µM | 16 µg/mL | 9.6 µM | 2 µg/mL | 1.2 µM | 60.9 %B | 8 µg/mL | 4.8 µM | – | 8 µg/mL | 4.8 µM | 10^3 CFU/mL | 10^2 CFU/mL | –
3 | CCCCCCCCCCCCCC(=O)N[C@H](CCCCN)C(=O)N[C@H](CCCCN)C(=O)N[C@H](CC(C)C)C(=O)N[C@H](Cc1ccccc1)C(=O)N[C@H](CCCCN)C(=O)N[C@H](CCCCN)C(=O)N[C@@H](C(=O)N1CCCC[C@H](C(N)=O)NC(=O)[C@@H](Cc2ccc(O)cc2)NC(=O)[C@@H](CCCNC(=N)N)NC(=O)[C@@H](CC(C)C)NC(=O)C1)[C@H](C)CC [compound 15] | 4 µg/mL | 2.3 µM | 16 µg/mL | 9.3 µM | 4 µg/mL | 2.3 µM | 78.5 %B | 4 µg/mL | 2.3 µM | – | 8 µg/mL | 4.6 µM | – | – | 83%
4 | CCCCCCCCCC(=O)N[C@H](CCCCN)C(=O)N[C@H](CCCCN)C(=O)N[C@H](CC(C)C)C(=O)N[C@H](Cc1ccccc1)C(=O)N[C@H](CCCCN)C(=O)N[C@H](CCCCN)C(=O)N1CCCC[C@H](C(N)=O)NC(=O)[C@@H](Cc2ccc(O)cc2)NC(=O)[C@@H](CCCNC(=N)N)NC(=O)[C@@H](CC(C)C)NC(=O)[C@@H]([C@H](C)CC)NC(=O)C1 [compound 16] | 8 µg/mL | 4.8 µM | 16 µg/mL | 9.7 µM | 4 µg/mL | 2.4 µM | 61.3 %B | 4 µg/mL | 2.4 µM | – | 8 µg/mL | 4.8 µM | – | – | 59%
